# Reference: ChEMBL document CHEMBL1201862, “PubChem BioAssay data set” (2004)
#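 Growth conditions: 96-well plates. Treatment: test compound, 48 hours, 5 concentrations. Analysis: linear interpolation between bracketing concentrations; unreached endpoints set to highest concentration. GI50: concentration for 50% inhibition of growth.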 Calls of active or inactive are those of the source. No stated cut-off is given here; in the data, active = GI50 up to about 1.1 µM and inactive = higher.
# Key:
# Assay in all cases: NCI-60 cell line screen, 48 h
# [1] = tested on: SN12C
# [2] = tested on: SF-539
# [3] = tested on: Hs-578T
# [4] = tested on: SK-MEL-5
# [5] = tested on: DU-145
# [6] = tested on: HCT-15
# [7] = tested on: OVCAR-5
# [8] = tested on: SK-MEL-2
# [9] = tested on: NCI-H460
# [10] = tested on: K562
# [11] = tested on: HL-60
# [12] = tested on: MDA-N
# [13] = tested on: EKVX
# [14] = tested on: RXF 393
# [15] = tested on: Malme-3M
# [16] = tested on: NCI/ADR-RES
# [17] = tested on: SNB-75
# [18] = tested on: KM12
# [19] = tested on: CCRF-CEM
# [20] = tested on: NCI-H522
Compound,GI50 [1],GI50 [2],GI50 [3],GI50 [4],GI50 [5],GI50 [6] [µM],GI50 [7],GI50 [8],GI50 [9],GI50 [10],GI50 [11],GI50 [12],GI50 [13],GI50 [14],GI50 [15],GI50 [16],GI50 [17],GI50 [18],GI50 [19],GI50 [20]
CC(=O)O[C@H]1CCc2c(cc(N)c3c2C(=O)C[C@]2(C)C([C@H](C)CCCC(C)C)CCC32C)C1(C)C (stereo partly specified),> 100 µM (inactive),71.9 µM (inactive),17.1 µM (inactive),> 100 µM (inactive),> 100 µM (inactive),> 100,> 100 µM (inactive),> 100 µM (inactive),> 100 µM (inactive),33.7 µM (inactive),66.5 µM (inactive),> 100 µM (inactive),> 100 µM (inactive),> 100 µM (inactive),> 100 µM (inactive),42.4 µM (inactive),> 100 µM (inactive),> 100 µM (inactive),> 100 µM (inactive),> 100 µM (inactive)
COc1cc2c(c(OC)c1OC)-c1ccc(SC)cc1[C@H](OC(=O)c1ccccc1)CC2,0.254 µM (active),0.0369 µM (active),0.132 µM (active),0.0697 µM (active),0.203 µM (active),0.0667,0.622 µM (active),> 100 µM (inactive),0.149 µM (active),0.0849 µM (active),0.146 µM (active),0.0136 µM (active),0.155 µM (active),0.0334 µM (active),,0.0946 µM (active),> 100 µM (inactive),0.0488 µM (active),0.0488 µM (active),0.0324 µM (active)
c1ccc2c(c1)CCN2CCN1CCc2ccccc21,> 10 µM (inactive),> 10 µM (inactive),> 10 µM (inactive),> 10 µM (inactive),> 10 µM (inactive),> 10,> 10 µM (inactive),> 10 µM (inactive),> 10 µM (inactive),> 10 µM (inactive),> 10 µM (inactive),> 10 µM (inactive),> 10 µM (inactive),> 10 µM (inactive),,> 10 µM (inactive),> 10 µM (inactive),> 10 µM (inactive),> 10 µM (inactive),> 10 µM (inactive)
CN(C)C(=O)Oc1ccc[n+](C)c1 [PYRIDOSTIGMINE BROMIDE],> 100 µM (inactive),,> 100 µM (inactive),> 100 µM (inactive),> 100 µM (inactive),> 100,> 100 µM (inactive),> 100 µM (inactive),> 100 µM (inactive),> 100 µM (inactive),> 100 µM (inactive),> 100 µM (inactive),> 100 µM (inactive),> 100 µM (inactive),> 100 µM (inactive),> 100 µM (inactive),> 100 µM (inactive),> 100 µM (inactive),,> 100 µM (inactive)
